Bounds are passed on as bounds.

Common to all, as to type: biochemical
Assay [1] has as its target cloned human κ opioid receptor (KOR) (Homo sapiens, UniProt P41145). Nature of the assay: Inhibition of U69,593-stimulated [35S]GTPγS binding. As to conditions: for δ/κ: ratio of Ke values, selectivity for KOR relative to DOR (fold). For orientation: Binding of GTPγS marks nucleotide exchange on a G protein.
Assay [2] has as its target cloned human μ opioid receptor (MOR) (Homo sapiens, UniProt P35372). The assay can be described thus: Inhibition of DAMGO-stimulated [35S]GTPγS binding.
The target of assay [3] is cloned human δ opioid receptor (DOR) (Homo sapiens, UniProt P41143). Nature of the assay: Inhibition of DPDPE-stimulated [35S]GTPγS binding.
Chain of cloned human δ opioid receptor (DOR) (P41143 whole entry): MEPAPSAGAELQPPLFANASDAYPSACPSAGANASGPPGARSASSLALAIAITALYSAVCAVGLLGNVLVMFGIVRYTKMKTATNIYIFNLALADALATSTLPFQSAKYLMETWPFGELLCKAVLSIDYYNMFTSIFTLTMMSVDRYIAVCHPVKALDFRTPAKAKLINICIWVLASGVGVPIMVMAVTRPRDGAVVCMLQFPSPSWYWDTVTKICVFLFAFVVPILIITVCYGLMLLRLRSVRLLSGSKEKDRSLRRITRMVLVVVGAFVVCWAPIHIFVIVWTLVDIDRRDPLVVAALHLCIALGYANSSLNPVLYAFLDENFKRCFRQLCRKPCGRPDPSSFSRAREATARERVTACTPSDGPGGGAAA

Chain of cloned human κ opioid receptor (KOR) (P41145 whole entry): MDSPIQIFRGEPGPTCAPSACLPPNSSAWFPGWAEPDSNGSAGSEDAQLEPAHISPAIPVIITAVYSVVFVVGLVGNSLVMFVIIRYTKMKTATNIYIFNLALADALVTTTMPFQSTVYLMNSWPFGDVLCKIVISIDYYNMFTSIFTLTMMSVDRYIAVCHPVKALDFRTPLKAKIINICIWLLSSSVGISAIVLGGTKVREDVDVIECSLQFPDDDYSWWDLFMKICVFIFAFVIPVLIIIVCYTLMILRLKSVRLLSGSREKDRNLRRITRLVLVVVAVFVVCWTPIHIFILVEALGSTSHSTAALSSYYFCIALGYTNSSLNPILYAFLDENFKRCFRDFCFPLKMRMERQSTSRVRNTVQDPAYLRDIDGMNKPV
Chain of cloned human μ opioid receptor (MOR) (P35372 whole entry): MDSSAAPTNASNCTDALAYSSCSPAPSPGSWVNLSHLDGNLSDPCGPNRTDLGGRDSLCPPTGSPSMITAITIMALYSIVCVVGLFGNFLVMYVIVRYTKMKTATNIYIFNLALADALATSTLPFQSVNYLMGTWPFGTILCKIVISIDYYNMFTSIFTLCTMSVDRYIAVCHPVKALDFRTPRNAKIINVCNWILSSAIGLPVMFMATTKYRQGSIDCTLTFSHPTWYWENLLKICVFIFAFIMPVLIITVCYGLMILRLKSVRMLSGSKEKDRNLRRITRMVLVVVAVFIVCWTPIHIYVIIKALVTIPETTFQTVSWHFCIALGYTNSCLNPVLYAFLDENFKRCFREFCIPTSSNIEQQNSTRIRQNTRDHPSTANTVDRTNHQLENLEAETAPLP

Take `CC(C)[C@@H](CN1CCC(c2cccnc2)CC1)NC(=O)[C@H]1Cc2ccc(O)cc2CN1` [Compound 3a, (3R)-7-Hydroxy-N-{(1S)-2-methyl-1-[(4-pyridin-3-ylpiperidin-1-yl)methyl]propyl}-1,2,3,4-tetrahydroisoquinoline-3-carboxamide]: the Kb in assay [1] turned out to be 0.51 ± 0.08 nM; in assay [2], 45.4 ± 15 nM; in assay [3], 1140 ± 70 nM. The δ/κ in assay [1] was 2,235.

Take `CC(C)[C@@H](CN1CCC(c2ccccn2)CC1)NC(=O)[C@H]1Cc2ccc(O)cc2CN1` [Compound 2, (3R)-7-Hydroxy-N-{(1S)-2-methyl-1-[(4-pyridin-2-ylpiperidin-1-yl)methyl]propyl}-1,2,3,4-tetrahydroisoquinoline-3-carboxamide]: the Kb came to 0.43 ± 0.12 nM in assay [1], 14.5 ± 2.6 nM in assay [2] and 590 ± 130 nM in assay [3]. For the same molecule, the δ/κ in assay [1] was 1,372.

As to `CC(C)[C@@H](CN1CCC(C)(c2ccncc2)CC1)NC(=O)[C@H]1Cc2ccc(O)cc2CN1` [Compound 4b, (3R)-7-Hydroxy-N-{(1S)-2-methyl-1-[(4-methyl-4-pyridin-4-ylpiperidin-1-yl)methyl]propyl}-1,2,3,4-tetrahydroisoquinoline-3-carboxamide], the Kb in assay [1] was found to be 1.75 ± 0.65 nM; in assay [2] it was 154 ± 56 nM; in assay [3] it was 2510 nM. The δ/κ in assay [1] is reported as 1,434.

Regarding `CC(C)[C@@H](CN1CCC(C)(c2cccnc2)CC1)NC(=O)[C@H]1Cc2ccc(O)cc2CN1` [Compound 3b, (3R)-7-Hydroxy-N-{(1S)-2-methyl-1-[(4-methyl-4-pyridin-3-ylpiperidin-1-yl)methyl]propyl}-1,2,3,4-tetrahydroisoquinoline-3-carboxamide], the Kb in assay [1] was 0.18 ± 0.01 nM; in assay [2], 49.2 ± 14 nM; in assay [3], over 3000 nM. In addition, the δ/κ in assay [1] was >16,700.

In the case of `CC(C)[C@@H](CN1CCC(c2ccncc2)CC1)NC(=O)[C@H]1Cc2ccc(O)cc2CN1` [Compound 4a, (3R)-7-Hydroxy-N-{(1S)-2-methyl-1-[(4-pyridin-4-ylpiperidin-1-yl)methyl]propyl}-1,2,3,4-tetrahydroisoquinoline-3-carboxamide], the figures for the Kb in assay [1], in assay [2] and in assay [3] were 0.51 ± 0.14 nM, 57.1 ± 15 nM and 690 ± 250 nM, respectively. In assay [1], the δ/κ is 1,353.

Values taken from paper PMC4957640 (Bioorganic & medicinal chemistry, 2016).
